pIC50: −log10 of the molar value.
What was measured:
[1] = molecular target: T1, metabotropic glutamate receptor (mGluR5) (Homo sapiens, UniProt P41594); test: Activity as mGluR5 modulator (prior-art compounds, method not given)
mGluR5 receptors = molecular target: T2, mGluR5 receptors (Rattus norvegicus, UniProt P31424); test: Cytosolic calcium studies with astrocytes (astrocyte culture test, FLIPR); type: cell-based; conditions: rat primary astrocytes, L-quisqualate 100 nM; read-out: mGluR5_FLIPR_r_rpA IC50
T2 construct: endogenous in cells; host or cells: primary astrocytes from neocortex of Sprague-Dawley rat pups
T2 sequence (P31424 21-1203): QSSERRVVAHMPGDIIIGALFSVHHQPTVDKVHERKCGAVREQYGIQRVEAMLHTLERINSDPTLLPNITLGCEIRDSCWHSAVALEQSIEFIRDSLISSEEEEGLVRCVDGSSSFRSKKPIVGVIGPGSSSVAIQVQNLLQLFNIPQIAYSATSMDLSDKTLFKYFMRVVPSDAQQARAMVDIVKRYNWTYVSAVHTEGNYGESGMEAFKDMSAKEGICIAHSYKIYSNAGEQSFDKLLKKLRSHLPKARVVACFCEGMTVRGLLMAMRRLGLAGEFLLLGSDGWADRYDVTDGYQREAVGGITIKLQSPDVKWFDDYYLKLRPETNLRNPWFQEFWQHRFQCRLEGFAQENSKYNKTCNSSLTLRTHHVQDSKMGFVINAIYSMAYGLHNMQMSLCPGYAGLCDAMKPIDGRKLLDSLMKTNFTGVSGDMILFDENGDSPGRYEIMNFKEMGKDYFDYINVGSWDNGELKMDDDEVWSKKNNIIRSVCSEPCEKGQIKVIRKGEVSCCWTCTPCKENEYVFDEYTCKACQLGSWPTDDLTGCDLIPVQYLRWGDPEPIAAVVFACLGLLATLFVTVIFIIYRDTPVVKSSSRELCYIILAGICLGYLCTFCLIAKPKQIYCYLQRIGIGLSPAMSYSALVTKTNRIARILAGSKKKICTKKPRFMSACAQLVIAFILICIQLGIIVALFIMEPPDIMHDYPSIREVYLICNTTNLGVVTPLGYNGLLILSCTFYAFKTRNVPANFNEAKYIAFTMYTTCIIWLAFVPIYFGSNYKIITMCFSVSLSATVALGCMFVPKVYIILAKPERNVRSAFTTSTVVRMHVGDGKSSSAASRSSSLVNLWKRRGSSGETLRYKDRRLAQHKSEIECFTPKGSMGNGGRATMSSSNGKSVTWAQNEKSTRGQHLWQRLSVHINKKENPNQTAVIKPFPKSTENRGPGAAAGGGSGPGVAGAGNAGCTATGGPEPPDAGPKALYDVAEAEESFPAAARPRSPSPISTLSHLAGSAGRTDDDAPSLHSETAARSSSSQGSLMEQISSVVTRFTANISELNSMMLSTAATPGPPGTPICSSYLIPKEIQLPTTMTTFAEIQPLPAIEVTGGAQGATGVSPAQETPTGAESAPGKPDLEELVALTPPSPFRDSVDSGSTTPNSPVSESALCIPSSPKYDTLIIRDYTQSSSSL
Procedure: Primary astrocyte cultures are prepared from cortices of newborn rats as described by Booher and Sensenbrenner (1972, Neurobiology 2(3):97-105). Briefly, Sprague-Dawley rat pups (2-4 d old) are decapitated and neocortices are dissected, disintegrated with a nylon filter (pore size 80 μm) and carefully triturated. […]
The increase of cytosolic calcium after stimulation with the mGluR5 agonist L-quisqualate is measured using a fluorometric imaging plate reader (FLIPR) and the Ca-Kit (both Molecular Devices). […] Subsequently, plates are transferred to FLIPR to detect calcium increase with the addition of L-quisqualate (100 nM) measured as relative fluorescence units (RFU). […]
(§1) The fluorescence signal increase after addition of agonist reflects the increase of cytosolic calcium. […] The mean of replicated temporal data (n=3-5) is calculated and used for graphical representation. For the evaluation of the pharmacology, the calcium changes in response to different concentrations of agonist or antagonist are determined using a maximum minus minimum (MaxMin) calculation.
All responses (RFU-values) are determined as percentage of control (=maximum response). EC50 and IC50 are calculated according the logistic equation using GraFit 5.0 (Erithacus Software, GB) or Prism 4.0 (GraphPad Software, USA).

[2] = molecular target: T3, transmembrane allosteric modulatory sites of mGluR5 receptors in cortical membranes (Rattus norvegicus, UniProt P31424); test: [3H]-MPEP binding assay in rat cortical membranes; conditions: [3H]-MPEP 5 nM, read-out: mGluR5_MPEP rCTX_IC50
T3 construct: from tissue; host or cells: rat brain cortex membranes (male Sprague-Dawley)
T3 sequence (P31424 21-1203): as above
Procedure: Male Sprague-Dawley rats (200-250 g) are decapitated and their brains are removed rapidly. The cortex is dissected and homogenized in 20 volumes of ice-cold 0.32 M sucrose using a glass-Teflon homogenizer. The homogenate is centrifuged at 1000×g for 10 minutes. The pellet is discarded and the supernatant centrifuged at 20,000×g for 20 minutes. The resulting pellet is re-suspended in 20 volumes of distilled water and centrifuged for 20 minutes at 8000×g. Then the supernatant and the buffy coat are centrifuged at 48,000×g for 20 minutes in the presence of 50 mM Tris-HCl, pH 8.0. The pellet is then re-suspended and centrifuged two to three more times at 48,000×g for 20 minutes in the presence of 50 mM Tris-HCl, pH 8.0. All centrifugation steps are carried out at 4° C. After resuspension in 5 volumes of 50 mM Tris-HCl, pH 8.0 the membrane suspension is frozen rapidly at −80° C. […]
Alternatively, assays are performed with [^3H]-MMPEP (2-(3-methoxyphenylethynyl)-6-methylpyridine hydrochloride) as radioligand. […] Following separation and rinse, the filters are placed into scintillation liquid (5 ml Ultima Gold, Perkin Elmer, Germany) and radioactivity retained on the filters is determined with a conventional liquid scintillation counter (Canberra Packard, Germany).

[3] = molecular target: T1, metabotropic glutamate receptor (mGluR5); test: Cytosolic calcium studies with stably transfected cells (FLIPR); type: cell-based; parameters: expressed in transfected cells; host or cells: CHO-K1 cells (IPTG-inducible expression); conditions: CHO-K1 cells with human mGluR5, agonist L-quisqualic acid; read-out: mGluR5_FLIPR_h_CHONAM_IC50
Procedure: Cytosolic Calcium Studies with Stably Transfected Cells
Chinese hamster ovary cells (CHO-K1 cells), stably transfected for inducible expression of a human metabotropic glutamate receptor mGluR5, are seeded into black clear bottom 96 well plates at a density of 35.000 cells per well. The standard growth medium used (Dulbecco's modified Eagle Medium, DMEM plus L-proline) contains the appropriate inducer isopropyl-β-D-thiogalactopyranosid (IPTG) to achieve optimal receptor expression. One day after seeding the growth medium is exchanged for reconstituted Ca-Kit (Molecular Devices, USA) and incubated for one hour. […] Agonistic compounds to the receptor elicit increases in cytosolic calcium which can be measured as increases in fluorescence signals by use of a fluorescence imaging plate reader (Molecular Devices).
as §1
All responses (RFU-values) are determined as percentage of control (=maximum response). […]

T1 sequence (P41594 21-1212): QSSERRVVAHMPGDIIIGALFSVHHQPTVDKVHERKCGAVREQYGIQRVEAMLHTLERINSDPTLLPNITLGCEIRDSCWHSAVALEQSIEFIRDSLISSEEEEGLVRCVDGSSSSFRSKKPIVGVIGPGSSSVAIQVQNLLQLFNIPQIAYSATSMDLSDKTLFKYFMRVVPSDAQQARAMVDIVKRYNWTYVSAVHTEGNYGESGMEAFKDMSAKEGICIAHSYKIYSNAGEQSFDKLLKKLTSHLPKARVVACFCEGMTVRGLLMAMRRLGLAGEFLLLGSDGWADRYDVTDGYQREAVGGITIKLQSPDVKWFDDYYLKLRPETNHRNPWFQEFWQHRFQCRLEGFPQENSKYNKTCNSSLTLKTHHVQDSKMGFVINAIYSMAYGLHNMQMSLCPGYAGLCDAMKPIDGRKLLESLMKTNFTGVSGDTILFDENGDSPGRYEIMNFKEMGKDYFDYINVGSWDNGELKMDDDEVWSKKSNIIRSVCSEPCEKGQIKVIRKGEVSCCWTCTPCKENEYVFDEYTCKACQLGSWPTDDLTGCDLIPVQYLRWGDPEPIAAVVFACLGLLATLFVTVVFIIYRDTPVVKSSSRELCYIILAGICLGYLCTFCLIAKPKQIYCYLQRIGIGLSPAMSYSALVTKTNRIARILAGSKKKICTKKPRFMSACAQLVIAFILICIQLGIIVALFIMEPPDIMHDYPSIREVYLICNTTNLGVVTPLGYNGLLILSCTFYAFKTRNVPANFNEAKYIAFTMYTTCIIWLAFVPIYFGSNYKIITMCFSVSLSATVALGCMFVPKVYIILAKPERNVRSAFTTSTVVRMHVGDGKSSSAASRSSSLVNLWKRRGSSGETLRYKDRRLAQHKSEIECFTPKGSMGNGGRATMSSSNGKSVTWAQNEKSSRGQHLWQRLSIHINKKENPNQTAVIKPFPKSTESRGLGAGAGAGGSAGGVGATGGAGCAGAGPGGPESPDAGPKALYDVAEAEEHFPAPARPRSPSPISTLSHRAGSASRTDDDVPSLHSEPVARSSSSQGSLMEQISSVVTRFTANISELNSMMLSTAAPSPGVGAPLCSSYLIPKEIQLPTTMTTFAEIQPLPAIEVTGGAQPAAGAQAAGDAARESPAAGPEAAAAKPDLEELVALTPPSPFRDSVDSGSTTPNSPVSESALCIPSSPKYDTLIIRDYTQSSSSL

activity as metabotropic glutamate receptor (mGluR5) modulator [1] | selectivity [1] | pIC50 (mGluR5 receptors) | pIC50 [2] | pIC50 [3] | Structure (SMILES)
only a limited activity | not selective |  |  |  | O=C(c1cc2ncc(Br)cn2n1)N1CCc2ccccc2C1 [M, (6-Bromo-pyrazolo[1,5-a]pyrimidin-2-yl)-(1,2,3,4-tetrahydro-isoquinolin-2-yl)-methanon]
 |  | 7.10 | 6.60 | 6.31 | O=C(c1cc2ncc(Br)cn2n1)N1CC=C(c2ccccc2)CC1 [Example 1, (6-Bromo-pyrazolo[1,5-a]pyrimidin-2-yl)-(4-phenyl-3,6-dihydro-2H-pyridin-1-yl)-methanone]
